# Test results taken from ChEMBL document CHEMBL4765295, “Synthesis, pharmacological profile and 2D-QSAR studies of curcumin-amino acid conjugates as potential drug candidates” (Eur J Med Chem, 2020).
# Values joined by “and” are separate entries in the source; they are usually repeats but may differ in a detail not shown here. Equal values may be shown once.
# System: Rattus norvegicus
# Assay: Anti-inflammatory activity in Wistar rat assessed as inhibition of carrageenan-induced paw edema at 10 mg/kg, ip pretreated for 1 hr followed by carrageenan challenge and measured after 3 hr relative to control (reference value: 0.00 +/-0.1 %)
# Assay type: functional
# Details: time 4 hrs
row,Compound,inhibition in vivo at 10 mg/kg [%]
1,COc1cc(/C=C/C(=O)/C=C(O)/C=C/c2ccc(OC(=O)[C@H](Cc3ccccc3)NC(=O)OCC3c4ccccc4-c4ccccc43)c(OC)c2)ccc1OC(=O)[C@H](Cc1ccccc1)NC(=O)OCC1c2ccccc2-c2ccccc21,54

# System: Rattus norvegicus
# Assay: Antiinflammatory activity in Wistar rat model of carrageenan-induced paw edema assessed as reduction in thickness of paw edema at 10 mg/kg, ip pretreated for 1 hr followed by carrageenan challenge and measured after 4 hrs (reference value: 1.40 +/-0.10 mm)
# Assay type: functional
# Details: time 5 hrs
row,Compound,Activity [mm]
1,COc1cc(/C=C/C(=O)/C=C(O)/C=C/c2ccc(OC(=O)[C@H](Cc3ccccc3)NC(=O)OCC3c4ccccc4-c4ccccc43)c(OC)c2)ccc1OC(=O)[C@H](Cc1ccccc1)NC(=O)OCC1c2ccccc2-c2ccccc21,0.56

# System: Salmonella typhimurium
# Assay: Antibacterial activity against Salmonella typhimurium ATCC 19430 incubated for 18 hrs by agar dilution assay
# Assay type: functional, Salmonella enterica subsp. enterica serovar Typhimurium
# Details: Salmonella enterica
row,MIC,Compound
1,0.25 µg/mL and 0.226 µM,COc1cc(/C=C/C(=O)/C=C(O)/C=C/c2ccc(OC(=O)[C@H](Cc3ccccc3)NC(=O)OCC3c4ccccc4-c4ccccc43)c(OC)c2)ccc1OC(=O)[C@H](Cc1ccccc1)NC(=O)OCC1c2ccccc2-c2ccccc21

# System: Pseudomonas aeruginosa
# Assay: Antibacterial activity against Pseudomonas aeruginosa ATCC 27853 incubated for 18 hrs by agar dilution assay
# Assay type: functional
# Details: not given
row,MIC,Compound
1,2 µg/mL and 1.81 µM,COc1cc(/C=C/C(=O)/C=C(O)/C=C/c2ccc(OC(=O)[C@H](Cc3ccccc3)NC(=O)OCC3c4ccccc4-c4ccccc43)c(OC)c2)ccc1OC(=O)[C@H](Cc1ccccc1)NC(=O)OCC1c2ccccc2-c2ccccc21

# System: Rattus norvegicus
# Assay: Anti-inflammatory activity in Wistar rat assessed as inhibition of carrageenan-induced paw edema at 10 mg/kg, ip pretreated for 1 hr followed by carrageenan challenge and measured after 24 hr relative to control (reference value: 0.00 +/-0.3 %)
# Assay type: functional
# Details: time 25 hrs
row,Compound,inhibition in vivo at 10 mg/kg [%]
1,COc1cc(/C=C/C(=O)/C=C(O)/C=C/c2ccc(OC(=O)[C@H](Cc3ccccc3)NC(=O)OCC3c4ccccc4-c4ccccc43)c(OC)c2)ccc1OC(=O)[C@H](Cc1ccccc1)NC(=O)OCC1c2ccccc2-c2ccccc21,5

# System: Peritoneal macrophage
# Assay: Antiinflammatory activity in […] mouse Peritoneal macrophages assessed as inhibition of LPS-induced NO production at 10 uM preincubated for 1 hr followed by LPS stimulation measured after 24 hrs by Griess method relative to control (reference value: 0.0 %)
# Assay type: functional
# Design: scale not given: the % may be the effect or the level left
# Details: time 25 hrs
row,Compound,Activity [%]
1,COc1cc(/C=C/C(=O)/C=C(O)/C=C/c2ccc(OC(=O)[C@H](Cc3ccccc3)NC(=O)OCC3c4ccccc4-c4ccccc43)c(OC)c2)ccc1OC(=O)[C@H](Cc1ccccc1)NC(=O)OCC1c2ccccc2-c2ccccc21,31.01

# System: Rattus norvegicus
# Assay: Antiinflammatory activity in Wistar rat model of carrageenan-induced paw edema assessed as reduction in thickness of paw edema at 10 mg/kg, ip pretreated for 1 hr followed by carrageenan challenge and measured after 1 hr (reference value: 2.41 +/-0.05 mm)
# Assay type: functional
# Details: time 1 hr after carrageenan
row,Compound,Activity [mm]
1,COc1cc(/C=C/C(=O)/C=C(O)/C=C/c2ccc(OC(=O)[C@H](Cc3ccccc3)NC(=O)OCC3c4ccccc4-c4ccccc43)c(OC)c2)ccc1OC(=O)[C@H](Cc1ccccc1)NC(=O)OCC1c2ccccc2-c2ccccc21,2.17

# System: Rattus norvegicus
# Assay: Antiinflammatory activity in Wistar rat model of carrageenan-induced paw edema assessed as reduction in thickness of paw edema at 10 mg/kg, ip pretreated for 1 hr followed by carrageenan challenge and measured after 2 hrs (reference value: 2.06 +/-0.09 mm)
# Assay type: functional
# Details: time 3 hrs
row,Compound,Activity [mm]
1,COc1cc(/C=C/C(=O)/C=C(O)/C=C/c2ccc(OC(=O)[C@H](Cc3ccccc3)NC(=O)OCC3c4ccccc4-c4ccccc43)c(OC)c2)ccc1OC(=O)[C@H](Cc1ccccc1)NC(=O)OCC1c2ccccc2-c2ccccc21,1.22

# System: Peritoneal macrophage
# Assay: Antiinflammatory activity in […] mouse Peritoneal macrophages assessed as reduction in LPS-induced NO production by measuring reduction in stimulation index at 10 uM preincubated for 1 hr followed by LPS stimulation measured after 24 hrs by Griess method (reference value: 27.31 +/- 2.56 uM)
# Assay type: functional
# Details: time 25 hrs
row,Compound,Activity [µM]
1,COc1cc(/C=C/C(=O)/C=C(O)/C=C/c2ccc(OC(=O)[C@H](Cc3ccccc3)NC(=O)OCC3c4ccccc4-c4ccccc43)c(OC)c2)ccc1OC(=O)[C@H](Cc1ccccc1)NC(=O)OCC1c2ccccc2-c2ccccc21,18.84

# System: Rattus norvegicus
# Assay: Antiinflammatory activity in Wistar rat model of carrageenan-induced paw edema assessed as reduction in thickness of paw edema at 10 mg/kg, ip pretreated for 1 hr followed by carrageenan challenge and measured after 24 hrs (reference value: 0.83 +/-0.08 mm)
# Assay type: functional
# Details: time 25 hrs
row,Compound,Activity [mm]
1,COc1cc(/C=C/C(=O)/C=C(O)/C=C/c2ccc(OC(=O)[C@H](Cc3ccccc3)NC(=O)OCC3c4ccccc4-c4ccccc43)c(OC)c2)ccc1OC(=O)[C@H](Cc1ccccc1)NC(=O)OCC1c2ccccc2-c2ccccc21,0.79

# System: Streptococcus pyogenes
# Assay: Antibacterial activity against Streptococcus pyogenes ATCC 19615 incubated for 18 hrs by agar dilution method
# Assay type: functional
# Details: not given
row,MIC,Compound
1,0.125 µg/mL and 0.113 µM,COc1cc(/C=C/C(=O)/C=C(O)/C=C/c2ccc(OC(=O)[C@H](Cc3ccccc3)NC(=O)OCC3c4ccccc4-c4ccccc43)c(OC)c2)ccc1OC(=O)[C@H](Cc1ccccc1)NC(=O)OCC1c2ccccc2-c2ccccc21

# System: Rattus norvegicus
# Assay: Anti-inflammatory activity in Wistar rat assessed as inhibition of carrageenan-induced paw edema at 10 mg/kg, ip pretreated for 1 hr followed by carrageenan challenge and measured after 1 hr relative to control (reference value: 0.00 +/-0.02 %)
# Assay type: functional
# Details: time 2 hrs
row,Compound,inhibition in vivo at 10 mg/kg [%]
1,COc1cc(/C=C/C(=O)/C=C(O)/C=C/c2ccc(OC(=O)[C@H](Cc3ccccc3)NC(=O)OCC3c4ccccc4-c4ccccc43)c(OC)c2)ccc1OC(=O)[C@H](Cc1ccccc1)NC(=O)OCC1c2ccccc2-c2ccccc21,10

# System: Rattus norvegicus
# Assay: Anti-inflammatory activity in Wistar rat assessed as inhibition of carrageenan-induced paw edema at 10 mg/kg, ip pretreated for 1 hr followed by carrageenan challenge and measured after 2 hr relative to control (reference value: 0.00 +/-0.03 %)
# Assay type: functional
# Details: time 3 hrs
row,Compound,inhibition in vivo at 10 mg/kg [%]
1,COc1cc(/C=C/C(=O)/C=C(O)/C=C/c2ccc(OC(=O)[C@H](Cc3ccccc3)NC(=O)OCC3c4ccccc4-c4ccccc43)c(OC)c2)ccc1OC(=O)[C@H](Cc1ccccc1)NC(=O)OCC1c2ccccc2-c2ccccc21,41

# System: Staphylococcus aureus
# Assay: Antibacterial activity against Staphylococcus aureus ATCC 25923 incubated for 18 hrs by agar dilution method
# Assay type: functional
# Details: not given
row,MIC,Compound
1,0.25 µg/mL and 0.226 µM,COc1cc(/C=C/C(=O)/C=C(O)/C=C/c2ccc(OC(=O)[C@H](Cc3ccccc3)NC(=O)OCC3c4ccccc4-c4ccccc43)c(OC)c2)ccc1OC(=O)[C@H](Cc1ccccc1)NC(=O)OCC1c2ccccc2-c2ccccc21

# System: Splenocyte
# Assay: Immunomodulatory activity in Swiss albino mouse splenocytes assessed as cell viability at 10 uM by measuring stimulation index incubated for 72 hrs in presence of mitogenic stimulus phytohaemagglutinin by MTT assay (reference value: 1.00 +/- 0.24)
# Assay type: functional
# Details: not given
row,Compound,Activity_index
1,COc1cc(/C=C/C(=O)/C=C(O)/C=C/c2ccc(OC(=O)[C@H](Cc3ccccc3)NC(=O)OCC3c4ccccc4-c4ccccc43)c(OC)c2)ccc1OC(=O)[C@H](Cc1ccccc1)NC(=O)OCC1c2ccccc2-c2ccccc21,1.78

# System: Rattus norvegicus
# Assay: Anti-inflammatory activity in Wistar rat assessed as inhibition of carrageenan-induced paw edema at 10 mg/kg, ip pretreated for 1 hr followed by carrageenan challenge and measured after 4 hr relative to indomethacin
# Assay type: functional
# Details: time 5 hrs
row,Compound,inhibition in vivo at 10 mg/kg [%]
1,COc1cc(/C=C/C(=O)/C=C(O)/C=C/c2ccc(OC(=O)[C@H](Cc3ccccc3)NC(=O)OCC3c4ccccc4-c4ccccc43)c(OC)c2)ccc1OC(=O)[C@H](Cc1ccccc1)NC(=O)OCC1c2ccccc2-c2ccccc21,69

# System: Rattus norvegicus
# Assay: Antiinflammatory activity in Wistar rat model of carrageenan-induced paw edema assessed as reduction in thickness of paw edema at 10 mg/kg, ip pretreated for 1 hr followed by carrageenan challenge and measured after 3 hrs (reference value: 1.79 +/-0.07 mm)
# Assay type: functional
# Details: time 4 hrs
row,Compound,Activity [mm]
1,COc1cc(/C=C/C(=O)/C=C(O)/C=C/c2ccc(OC(=O)[C@H](Cc3ccccc3)NC(=O)OCC3c4ccccc4-c4ccccc43)c(OC)c2)ccc1OC(=O)[C@H](Cc1ccccc1)NC(=O)OCC1c2ccccc2-c2ccccc21,0.82

# System: Candida albicans
# Assay: Antifungal activity against Candida albicans incubated for 18 to 24 hrs by CLSI method
# Assay type: functional
# Details: time 18-24 hrs
row,MIC,Compound
1,0.5 µg/mL and 0.452 µM,COc1cc(/C=C/C(=O)/C=C(O)/C=C/c2ccc(OC(=O)[C@H](Cc3ccccc3)NC(=O)OCC3c4ccccc4-c4ccccc43)c(OC)c2)ccc1OC(=O)[C@H](Cc1ccccc1)NC(=O)OCC1c2ccccc2-c2ccccc21

# System: Rattus norvegicus
# Assay: Anti-inflammatory activity in Wistar rat assessed as inhibition of carrageenan-induced paw edema at 10 mg/kg, ip pretreated for 1 hr followed by carrageenan challenge and measured after 4 hr relative to control (reference value: 0.00 +/-0.4 %)
# Assay type: functional
# Details: time 5 hrs
row,Compound,inhibition in vivo at 10 mg/kg [%]
1,COc1cc(/C=C/C(=O)/C=C(O)/C=C/c2ccc(OC(=O)[C@H](Cc3ccccc3)NC(=O)OCC3c4ccccc4-c4ccccc43)c(OC)c2)ccc1OC(=O)[C@H](Cc1ccccc1)NC(=O)OCC1c2ccccc2-c2ccccc21,60

# System: Splenocyte
# Assay: Immunomodulatory activity in Swiss albino mouse splenocytes assessed as cell viability at 10 uM by measuring inhibition of stimulation index incubated for 72 hrs in presence of mitogenic stimulus phytohaemagglutinin by MTT assay relative to indomethacin
# Assay type: functional
# Details: read-out: Activity
row,Compound,viability at 10 µM [%]
1,COc1cc(/C=C/C(=O)/C=C(O)/C=C/c2ccc(OC(=O)[C@H](Cc3ccccc3)NC(=O)OCC3c4ccccc4-c4ccccc43)c(OC)c2)ccc1OC(=O)[C@H](Cc1ccccc1)NC(=O)OCC1c2ccccc2-c2ccccc21,68.1
